Reference: ChEMBL document CHEMBL3991601, “The target landscape of clinical kinase drugs” (Science, 2017)
Calls of active or inactive are those of the source.

Legend:
[1] = biological target: Non-receptor tyrosine-protein kinase TYK2 (Homo sapiens, UniProt P29597)
[2] = biological target: T1, Peroxisomal acyl-coenzyme A oxidase 3 (Homo sapiens, UniProt O15254)
T1 sequence (O15254 whole entry): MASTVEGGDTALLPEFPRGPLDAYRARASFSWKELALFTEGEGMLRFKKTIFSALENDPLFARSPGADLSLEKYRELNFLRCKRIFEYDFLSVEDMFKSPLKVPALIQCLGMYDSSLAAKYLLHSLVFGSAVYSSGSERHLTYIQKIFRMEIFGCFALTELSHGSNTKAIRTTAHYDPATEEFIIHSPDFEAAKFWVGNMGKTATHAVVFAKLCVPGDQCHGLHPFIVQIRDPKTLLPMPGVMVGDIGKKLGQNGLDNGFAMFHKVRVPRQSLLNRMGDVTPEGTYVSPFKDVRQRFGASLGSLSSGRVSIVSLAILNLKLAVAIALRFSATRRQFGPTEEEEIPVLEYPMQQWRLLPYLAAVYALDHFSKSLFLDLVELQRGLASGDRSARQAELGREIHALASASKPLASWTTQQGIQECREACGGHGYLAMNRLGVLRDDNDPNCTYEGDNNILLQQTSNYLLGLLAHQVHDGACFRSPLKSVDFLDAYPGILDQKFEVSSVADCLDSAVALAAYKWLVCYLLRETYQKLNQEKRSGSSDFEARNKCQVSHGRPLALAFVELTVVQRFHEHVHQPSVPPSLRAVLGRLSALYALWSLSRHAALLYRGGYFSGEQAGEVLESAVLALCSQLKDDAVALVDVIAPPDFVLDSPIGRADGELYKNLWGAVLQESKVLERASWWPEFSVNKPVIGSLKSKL

[3] = biological target: Ribosomal protein S6 kinase alpha-5 (Homo sapiens, UniProt O75582)
[4] = biological target: Mitogen-activated protein kinase kinase kinase 4 (Homo sapiens, UniProt Q9Y6R4)
[5] = biological target: Mitogen-activated protein kinase 1 (Homo sapiens, UniProt P28482)
[6] = biological target: T2, Ephrin type-B receptor 6 (Homo sapiens, UniProt O15197)
T2 sequence (O15197 whole entry): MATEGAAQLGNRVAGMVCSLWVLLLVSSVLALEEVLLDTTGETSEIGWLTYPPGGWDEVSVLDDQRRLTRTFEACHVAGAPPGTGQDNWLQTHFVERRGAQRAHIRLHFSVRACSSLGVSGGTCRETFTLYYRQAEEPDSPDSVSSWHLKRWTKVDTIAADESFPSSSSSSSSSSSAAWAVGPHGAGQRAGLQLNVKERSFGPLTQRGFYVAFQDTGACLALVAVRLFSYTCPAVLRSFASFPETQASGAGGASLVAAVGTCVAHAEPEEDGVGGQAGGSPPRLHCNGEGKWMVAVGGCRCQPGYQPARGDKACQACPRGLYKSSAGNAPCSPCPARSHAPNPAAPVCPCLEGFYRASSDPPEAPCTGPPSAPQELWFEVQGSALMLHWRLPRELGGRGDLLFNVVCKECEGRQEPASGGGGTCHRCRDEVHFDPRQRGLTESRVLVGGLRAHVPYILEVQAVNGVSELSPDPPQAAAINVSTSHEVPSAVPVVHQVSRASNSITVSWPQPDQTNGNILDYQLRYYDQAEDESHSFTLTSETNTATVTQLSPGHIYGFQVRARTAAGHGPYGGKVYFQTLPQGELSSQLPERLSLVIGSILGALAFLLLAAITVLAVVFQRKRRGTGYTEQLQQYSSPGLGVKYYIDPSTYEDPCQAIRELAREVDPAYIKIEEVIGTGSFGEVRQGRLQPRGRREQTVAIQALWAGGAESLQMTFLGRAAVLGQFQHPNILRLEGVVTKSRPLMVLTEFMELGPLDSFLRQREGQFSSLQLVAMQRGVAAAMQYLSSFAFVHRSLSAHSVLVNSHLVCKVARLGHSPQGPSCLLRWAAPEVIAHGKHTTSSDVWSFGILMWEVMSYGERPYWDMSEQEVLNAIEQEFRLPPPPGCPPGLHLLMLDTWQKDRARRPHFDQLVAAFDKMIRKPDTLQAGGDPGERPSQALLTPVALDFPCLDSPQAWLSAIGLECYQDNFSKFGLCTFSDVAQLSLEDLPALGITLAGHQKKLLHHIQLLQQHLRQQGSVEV

[7] = biological target: T3, Mitogen-activated protein kinase kinase kinase 2 (Homo sapiens, UniProt Q9Y2U5)
T3 sequence (Q9Y2U5 whole entry): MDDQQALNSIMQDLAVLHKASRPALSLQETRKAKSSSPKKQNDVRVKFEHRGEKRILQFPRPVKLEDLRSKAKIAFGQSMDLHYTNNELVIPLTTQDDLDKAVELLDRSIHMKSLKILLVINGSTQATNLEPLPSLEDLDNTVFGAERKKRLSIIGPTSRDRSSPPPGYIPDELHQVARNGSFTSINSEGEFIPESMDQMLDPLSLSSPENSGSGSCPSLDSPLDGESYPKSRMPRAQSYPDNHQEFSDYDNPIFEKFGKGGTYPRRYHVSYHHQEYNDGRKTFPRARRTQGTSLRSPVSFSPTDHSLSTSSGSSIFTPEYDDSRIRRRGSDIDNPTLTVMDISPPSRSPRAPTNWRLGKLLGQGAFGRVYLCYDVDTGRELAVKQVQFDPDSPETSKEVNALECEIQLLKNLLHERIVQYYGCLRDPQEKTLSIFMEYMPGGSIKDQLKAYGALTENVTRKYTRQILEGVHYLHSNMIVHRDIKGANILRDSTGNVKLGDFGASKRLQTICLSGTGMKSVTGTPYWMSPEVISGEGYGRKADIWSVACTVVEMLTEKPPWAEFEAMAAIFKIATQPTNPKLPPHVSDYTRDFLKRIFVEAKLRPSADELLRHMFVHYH

[8] = biological target: T4, Cytochrome c1, heme protein, mitochondrial (Homo sapiens, UniProt P08574)
T4 sequence (P08574 whole entry): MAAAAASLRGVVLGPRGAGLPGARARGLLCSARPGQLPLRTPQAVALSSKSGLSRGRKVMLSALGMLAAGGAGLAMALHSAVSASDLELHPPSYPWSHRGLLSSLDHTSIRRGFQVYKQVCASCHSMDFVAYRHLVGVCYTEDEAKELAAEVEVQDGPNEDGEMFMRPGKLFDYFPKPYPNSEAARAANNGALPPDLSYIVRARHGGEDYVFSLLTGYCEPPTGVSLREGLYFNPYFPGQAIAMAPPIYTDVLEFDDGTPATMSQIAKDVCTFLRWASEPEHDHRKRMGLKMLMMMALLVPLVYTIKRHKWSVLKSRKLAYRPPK
Note: in the data inactive means no Kd found up to 30 µM.

Non-receptor tyrosine-protein kinase TYK2, sequence (P29597 whole entry): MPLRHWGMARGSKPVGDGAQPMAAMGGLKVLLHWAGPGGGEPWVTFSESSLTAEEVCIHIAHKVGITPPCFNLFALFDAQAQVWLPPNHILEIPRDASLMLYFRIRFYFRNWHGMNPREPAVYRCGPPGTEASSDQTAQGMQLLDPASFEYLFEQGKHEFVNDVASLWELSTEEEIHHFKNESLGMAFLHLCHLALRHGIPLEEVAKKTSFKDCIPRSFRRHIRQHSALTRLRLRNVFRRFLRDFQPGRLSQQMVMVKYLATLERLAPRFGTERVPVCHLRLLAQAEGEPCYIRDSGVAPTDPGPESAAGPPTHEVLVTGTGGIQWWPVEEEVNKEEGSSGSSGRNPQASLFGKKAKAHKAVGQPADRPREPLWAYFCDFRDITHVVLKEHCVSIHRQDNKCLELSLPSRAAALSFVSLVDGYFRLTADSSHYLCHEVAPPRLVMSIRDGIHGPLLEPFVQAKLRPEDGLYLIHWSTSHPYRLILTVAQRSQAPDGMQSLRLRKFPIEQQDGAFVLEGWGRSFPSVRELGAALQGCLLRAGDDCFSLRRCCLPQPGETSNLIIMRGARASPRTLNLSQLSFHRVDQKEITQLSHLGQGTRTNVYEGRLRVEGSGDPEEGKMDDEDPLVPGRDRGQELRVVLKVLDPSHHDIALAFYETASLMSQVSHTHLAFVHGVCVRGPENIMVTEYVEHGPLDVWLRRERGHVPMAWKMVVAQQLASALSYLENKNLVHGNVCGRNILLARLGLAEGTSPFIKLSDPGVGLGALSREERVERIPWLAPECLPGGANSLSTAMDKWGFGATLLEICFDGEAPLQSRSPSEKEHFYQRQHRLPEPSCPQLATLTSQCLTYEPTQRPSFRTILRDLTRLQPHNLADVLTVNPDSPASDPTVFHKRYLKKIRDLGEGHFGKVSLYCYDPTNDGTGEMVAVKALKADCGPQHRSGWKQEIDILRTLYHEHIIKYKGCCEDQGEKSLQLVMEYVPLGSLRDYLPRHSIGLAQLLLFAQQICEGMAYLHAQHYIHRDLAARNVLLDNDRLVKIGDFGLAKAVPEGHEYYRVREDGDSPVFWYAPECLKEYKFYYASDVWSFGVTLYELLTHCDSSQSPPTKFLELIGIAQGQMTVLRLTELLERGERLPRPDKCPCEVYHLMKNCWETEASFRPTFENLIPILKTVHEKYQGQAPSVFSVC
Mitogen-activated protein kinase 1, sequence (P28482 whole entry): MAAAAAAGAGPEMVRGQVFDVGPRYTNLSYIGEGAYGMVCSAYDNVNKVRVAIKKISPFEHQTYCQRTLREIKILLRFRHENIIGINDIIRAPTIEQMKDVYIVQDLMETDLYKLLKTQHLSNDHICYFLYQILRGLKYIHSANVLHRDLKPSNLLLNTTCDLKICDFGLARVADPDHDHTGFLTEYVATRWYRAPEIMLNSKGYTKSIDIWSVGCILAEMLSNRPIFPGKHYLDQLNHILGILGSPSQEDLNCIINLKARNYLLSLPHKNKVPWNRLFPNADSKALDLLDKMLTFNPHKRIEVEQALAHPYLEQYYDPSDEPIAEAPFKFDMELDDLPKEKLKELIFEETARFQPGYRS
Mitogen-activated protein kinase kinase kinase 4, sequence (Q9Y6R4 whole entry): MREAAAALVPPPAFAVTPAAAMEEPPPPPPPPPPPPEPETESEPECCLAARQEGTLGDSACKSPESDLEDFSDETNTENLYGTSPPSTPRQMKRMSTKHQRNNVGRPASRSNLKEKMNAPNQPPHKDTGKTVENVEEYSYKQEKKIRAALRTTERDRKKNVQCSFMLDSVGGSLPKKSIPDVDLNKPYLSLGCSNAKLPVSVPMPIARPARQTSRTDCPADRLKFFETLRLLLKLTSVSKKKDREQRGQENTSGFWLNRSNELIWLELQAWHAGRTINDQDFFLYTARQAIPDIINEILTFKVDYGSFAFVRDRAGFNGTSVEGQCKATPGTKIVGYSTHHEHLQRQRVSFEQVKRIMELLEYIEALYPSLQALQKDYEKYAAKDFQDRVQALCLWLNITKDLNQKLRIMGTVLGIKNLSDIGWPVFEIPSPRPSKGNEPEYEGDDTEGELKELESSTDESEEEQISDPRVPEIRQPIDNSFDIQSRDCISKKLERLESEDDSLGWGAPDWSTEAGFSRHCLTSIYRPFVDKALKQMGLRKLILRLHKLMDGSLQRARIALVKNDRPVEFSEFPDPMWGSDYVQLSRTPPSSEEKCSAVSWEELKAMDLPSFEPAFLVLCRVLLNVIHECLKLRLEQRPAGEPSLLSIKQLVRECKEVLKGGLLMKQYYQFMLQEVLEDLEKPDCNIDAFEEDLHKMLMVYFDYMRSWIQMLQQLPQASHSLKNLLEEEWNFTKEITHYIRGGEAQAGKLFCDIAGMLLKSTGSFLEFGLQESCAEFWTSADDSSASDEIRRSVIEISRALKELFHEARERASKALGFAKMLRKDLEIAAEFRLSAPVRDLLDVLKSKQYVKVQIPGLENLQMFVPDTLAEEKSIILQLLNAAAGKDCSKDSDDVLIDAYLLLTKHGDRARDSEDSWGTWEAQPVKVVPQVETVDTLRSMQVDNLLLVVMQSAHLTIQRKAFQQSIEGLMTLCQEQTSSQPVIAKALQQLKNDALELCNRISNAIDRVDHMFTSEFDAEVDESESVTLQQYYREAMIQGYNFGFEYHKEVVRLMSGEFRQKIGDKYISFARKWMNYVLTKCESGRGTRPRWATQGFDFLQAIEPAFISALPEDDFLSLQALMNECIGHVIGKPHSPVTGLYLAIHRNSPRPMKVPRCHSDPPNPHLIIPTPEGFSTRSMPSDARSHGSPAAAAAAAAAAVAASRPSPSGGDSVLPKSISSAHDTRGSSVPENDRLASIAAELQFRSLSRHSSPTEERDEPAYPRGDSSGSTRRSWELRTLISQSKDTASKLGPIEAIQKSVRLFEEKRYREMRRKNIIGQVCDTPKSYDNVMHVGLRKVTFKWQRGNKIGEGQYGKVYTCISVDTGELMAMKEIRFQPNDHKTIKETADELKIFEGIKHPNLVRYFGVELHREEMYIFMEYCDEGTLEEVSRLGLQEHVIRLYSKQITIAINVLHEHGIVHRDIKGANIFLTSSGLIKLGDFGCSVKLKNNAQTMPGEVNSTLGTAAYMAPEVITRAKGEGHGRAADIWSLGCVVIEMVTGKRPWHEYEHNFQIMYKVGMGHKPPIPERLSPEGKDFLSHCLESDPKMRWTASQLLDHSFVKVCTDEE
Ribosomal protein S6 kinase alpha-5, sequence (O75582 whole entry): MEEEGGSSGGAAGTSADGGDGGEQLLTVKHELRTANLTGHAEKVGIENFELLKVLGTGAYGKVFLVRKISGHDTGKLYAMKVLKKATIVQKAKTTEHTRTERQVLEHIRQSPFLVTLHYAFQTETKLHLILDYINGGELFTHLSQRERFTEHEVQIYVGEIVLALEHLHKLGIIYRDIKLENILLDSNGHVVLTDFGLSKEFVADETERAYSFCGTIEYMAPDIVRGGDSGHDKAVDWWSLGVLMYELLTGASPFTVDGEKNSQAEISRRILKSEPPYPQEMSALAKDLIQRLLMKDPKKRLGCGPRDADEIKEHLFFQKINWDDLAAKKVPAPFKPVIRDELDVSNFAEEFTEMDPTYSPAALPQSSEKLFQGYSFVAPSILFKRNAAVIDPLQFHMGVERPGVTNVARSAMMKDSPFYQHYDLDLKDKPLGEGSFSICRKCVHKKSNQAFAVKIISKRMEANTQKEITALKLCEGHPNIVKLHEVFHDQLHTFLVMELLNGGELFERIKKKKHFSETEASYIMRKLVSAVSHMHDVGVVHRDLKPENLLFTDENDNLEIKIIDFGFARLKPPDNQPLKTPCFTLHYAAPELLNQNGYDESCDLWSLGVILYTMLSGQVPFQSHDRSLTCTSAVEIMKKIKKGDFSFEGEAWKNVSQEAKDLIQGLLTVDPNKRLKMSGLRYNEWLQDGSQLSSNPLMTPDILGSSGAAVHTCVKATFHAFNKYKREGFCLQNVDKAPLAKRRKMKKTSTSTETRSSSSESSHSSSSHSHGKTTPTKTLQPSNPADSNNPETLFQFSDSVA

SMILES	Kd [1]	Kd [2]	Kd [3]	Kd [4]	Kd [5]	Kd [6]	Kd [7]	Kd [8]
C[C@@H](Oc1cc(C(=O)Nc2ccc(C(=O)N3CCN(C)CC3)cc2)nnc1N)c1c(Cl)ccc(F)c1Cl	> 30 µM (inactive)	> 30 µM (inactive)	> 30 µM (inactive)	> 30 µM (inactive)	> 30 µM (inactive)	> 30 µM (inactive)	> 30 µM (inactive)	
CC(=O)c1cnc2ccc(-c3cc(Cl)c(O)c(Cl)c3)nc2c1N[C@H]1CC[C@H](CN(C)C)CC1	> 30 µM (inactive)	> 30 µM (inactive)	0.298 µM (active)	> 30 µM (inactive)	> 30 µM (inactive)	0.521 µM (active)		> 30 µM (inactive)
CCNC(=O)C#Cc1ccc2c(c1)NC(=O)/C2=C(\Nc1ccc(CN(C)C)cc1)c1ccccc1	> 30 µM (inactive)	> 30 µM (inactive)	> 30 µM (inactive)	> 30 µM (inactive)	> 30 µM (inactive)	> 30 µM (inactive)	> 30 µM (inactive)	> 30 µM (inactive)
COCc1c(-c2ccc(NC(=O)Nc3cc(C(F)(F)F)ccc3F)c(F)c2)c2c(N)ncnn2c1CN1CCOCC1	> 30 µM (inactive)	> 30 µM (inactive)	> 30 µM (inactive)	> 30 µM (inactive)	> 30 µM (inactive)	> 30 µM (inactive)	> 30 µM (inactive)	> 30 µM (inactive)
COc1cc(Nc2ncc3c(n2)-c2ccc(Cl)cc2C(c2c(F)cccc2OC)=NC3)ccc1C(=O)O [ALISERTIB]		> 30 µM (inactive)	> 30 µM (inactive)	> 30 µM (inactive)		> 30 µM (inactive)	> 30 µM (inactive)	> 30 µM (inactive)
O=C(Nc1c[nH]nc1-c1nc2cc(CN3CCOCC3)ccc2[nH]1)NC1CC1 [AT-9283]		> 30 µM (inactive)	1.25 µM (active)		> 30 µM (inactive)	0.012 µM (active)	0.277 µM (active)	> 30 µM (inactive)
CNC(=O)c1ccccc1Sc1ccc2c(/C=C/c3ccccn3)n[nH]c2c1 [AXITINIB]		> 30 µM (inactive)						> 30 µM (inactive)
NC(=O)Nc1cc(-c2cccc(F)c2)sc1C(=O)N[C@H]1CCCNC1 [AZD-7762]	> 30 µM (inactive)	> 30 µM (inactive)	> 30 µM (inactive)	> 30 µM (inactive)	> 30 µM (inactive)		> 30 µM (inactive)	
CC(C)(C)c1nc(-c2cccc(NS(=O)(=O)c3c(F)cccc3F)c2F)c(-c2ccnc(N)n2)s1 [DABRAFENIB]		> 30 µM (inactive)	> 30 µM (inactive)	> 30 µM (inactive)	> 30 µM (inactive)	0.412 µM (active)	> 30 µM (inactive)	> 30 µM (inactive)
Cn1cc(C2=C(c3cn(C4CCN(Cc5ccccn5)CC4)c4ccccc34)C(=O)NC2=O)c2ccccc21 [ENZASTAURIN]		> 30 µM (inactive)						> 30 µM (inactive)
O=C(Nc1nc2cccc(-c3ccc(CN4CCS(=O)(=O)CC4)cc3)n2n1)C1CC1 [FILGOTINIB]		> 30 µM (inactive)	> 30 µM (inactive)	> 30 µM (inactive)	> 30 µM (inactive)	> 30 µM (inactive)	> 30 µM (inactive)	> 30 µM (inactive)
C[C@@H](Oc1cc(-n2cnc3ccc(CN4CCN(C)CC4)cc32)sc1C(N)=O)c1ccccc1C(F)(F)F [GSK-461364]		> 30 µM (inactive)						> 30 µM (inactive)
CCn1cc(-c2ccnc3[nH]c(-c4cccc(CN(C)C)c4)cc23)c(-c2ccc(NC(=O)N(C)C)cc2)n1 [GSK-1070916]		> 30 µM (inactive)	> 30 µM (inactive)	1.43 µM (active)	> 30 µM (inactive)	3.77 µM (active)	> 30 µM (inactive)	> 30 µM (inactive)
O=C(Nc1cc(C(F)(F)F)cc(C(F)(F)F)c1)c1cc(Cl)ccc1O [IMD-0354]	> 30 µM (inactive)	> 30 µM (inactive)	> 30 µM (inactive)	> 30 µM (inactive)		> 30 µM (inactive)	> 30 µM (inactive)	> 30 µM (inactive)
Cc1[nH]c(/C=C2\C(=O)Nc3ccccc32)c(C)c1CCC(=O)O [ORANTINIB]		> 30 µM (inactive)		> 30 µM (inactive)			> 30 µM (inactive)	> 30 µM (inactive)
NC(=O)c1c(OCc2c(F)cc(Br)cc2F)nsc1NC(=O)NCCCCN1CCCC1 [OSI-632]		> 30 µM (inactive)		> 30 µM (inactive)		0.226 µM (active)		> 30 µM (inactive)
CCOc1cc2ncc(C#N)c(Nc3ccc(F)c(Cl)c3)c2cc1NC(=O)/C=C/CN(C)C [PELITINIB]	> 30 µM (inactive)	> 30 µM (inactive)	> 30 µM (inactive)		> 30 µM (inactive)	> 30 µM (inactive)	> 30 µM (inactive)	> 30 µM (inactive)
CC(=O)NCC(=O)N1[C@@H]2CC[C@H]1c1ccc(Nc3ncc(C(F)(F)F)c(NC4CCC4)n3)cc12 [PF-03814735]		> 30 µM (inactive)	> 30 µM (inactive)	> 30 µM (inactive)		> 30 µM (inactive)	0.164 µM (active)	> 30 µM (inactive)
CNC(=O)c1cc(Oc2ccc(NC(=O)Nc3cc(C(C)(C)C)nn3-c3ccc4ncccc4c3)c(F)c2)ccn1 [REBASTINIB]	> 30 µM (inactive)	16.1 µM		> 30 µM (inactive)	> 30 µM (inactive)	> 30 µM (inactive)	> 30 µM (inactive)	> 30 µM (inactive)
O=C(NOCCO)c1cc(CN2OCCCC2=O)c(F)c(F)c1Nc1ccc(I)cc1F [RO-4987655]		> 30 µM (inactive)						> 30 µM (inactive)
N#CC[C@H](C1CCCC1)n1cc(-c2ncnc3[nH]ccc23)cn1 [RUXOLITINIB]		> 30 µM (inactive)						> 30 µM (inactive)
